Holding throughout (assay): In vitro competitive activity-based protein profiling (gel-based, FP-Rh or HT-01 probe)
What all share (type): biochemical

One experiment concerns the target T1, ABHD6 (Mus musculus, UniProt Q8R2Y0).
T1 construct: Proteomes (mouse brain membrane fraction or cell lysates); from tissue; host or cells: mouse brain membrane fraction (or cell lysates, not specified)
T1 sequence (Q8R2Y0 1-336): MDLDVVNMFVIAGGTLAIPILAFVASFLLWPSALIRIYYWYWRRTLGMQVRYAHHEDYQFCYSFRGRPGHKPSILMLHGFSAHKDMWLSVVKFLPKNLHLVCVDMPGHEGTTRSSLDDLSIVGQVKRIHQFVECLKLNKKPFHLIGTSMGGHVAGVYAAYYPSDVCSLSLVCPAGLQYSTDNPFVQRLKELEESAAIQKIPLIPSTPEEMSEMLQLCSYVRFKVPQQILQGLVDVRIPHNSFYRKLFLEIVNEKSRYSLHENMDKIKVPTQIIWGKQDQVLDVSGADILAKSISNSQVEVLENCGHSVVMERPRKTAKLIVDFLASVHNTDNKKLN
To be noted: for inhibition at 10 µM: 10 μM inhibitor, read-out: % Inhibition at 10 μM, C = ABHD6; for IC50: mouse brain membrane fraction or cell lysates, 30 min preincubation at 37° C., read-out: Mouse (IC50 value, nM) ABHD6; for inhibition at 1 µM: 1 μM inhibitor, read-out: % Inhibition at 1 μM, C = ABHD6. The method, then:
(§1) In Vitro Competitive Activity-Based Protein Profiling.
(§2) Proteomes (mouse brain membrane fraction or cell lysates) (50 μL, 1.0 mg/mL total protein concentration) were preincubated with varying concentrations of inhibitors at 37° C. After 30 min, FP-Rh or HT-01 ([…], 50 μM in DMSO) was added and the mixture was incubated for another 30 min at 37° C. Reactions were quenched with SDS loading buffer (15 μL—4×) and run on SDS-PAGE. Following gel imaging, serine hydrolase activity was determined by measuring fluorescent intensity of gel bands corresponding to MAGL, ABHD6, FAAH, and PLA2G7 using ImageJ 1.43u software.

The target of the next experiment is T2, FAAH (Mus musculus, UniProt O08914).
T2 construct: Proteomes (mouse brain membrane fraction or cell lysates); from tissue; host or cells: mouse brain membrane fraction (or cell lysates, not specified)
T2 sequence (O08914 1-579): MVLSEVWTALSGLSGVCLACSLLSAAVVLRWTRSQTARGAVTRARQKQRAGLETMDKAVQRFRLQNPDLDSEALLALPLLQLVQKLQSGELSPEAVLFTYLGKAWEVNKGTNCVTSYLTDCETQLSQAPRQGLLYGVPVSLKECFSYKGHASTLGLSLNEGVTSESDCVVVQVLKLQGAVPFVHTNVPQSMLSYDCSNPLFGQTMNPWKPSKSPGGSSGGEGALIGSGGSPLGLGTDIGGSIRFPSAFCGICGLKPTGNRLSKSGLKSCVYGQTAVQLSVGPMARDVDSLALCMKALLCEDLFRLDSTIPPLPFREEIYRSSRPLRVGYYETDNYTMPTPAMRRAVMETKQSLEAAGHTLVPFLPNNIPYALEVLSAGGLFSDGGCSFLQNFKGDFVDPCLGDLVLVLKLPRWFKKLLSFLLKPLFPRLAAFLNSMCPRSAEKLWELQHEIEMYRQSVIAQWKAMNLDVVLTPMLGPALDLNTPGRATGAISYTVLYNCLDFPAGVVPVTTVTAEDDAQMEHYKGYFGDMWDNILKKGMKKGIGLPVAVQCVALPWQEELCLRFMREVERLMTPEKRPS
To be noted: for inhibition at 10 µM: 10 μM inhibitor, read-out: % Inhibition at 10 μM, B = FAAH; for IC50: mouse brain membrane fraction or cell lysates, 30 min preincubation at 37° C., read-out: Mouse (IC50 value, nM) FAAH; for inhibition at 1 µM: 1 μM inhibitor, read-out: % Inhibition at 1 μM, B = FAAH. The procedure: as §1, §2

The target in the next experiment is T3, MAGL (Mus musculus, UniProt O35678).
T3 construct: Proteomes (mouse brain membrane fraction or cell lysates); from tissue; host or cells: mouse brain membrane fraction (or cell lysates, not specified)
T3 sequence (O35678 1-303): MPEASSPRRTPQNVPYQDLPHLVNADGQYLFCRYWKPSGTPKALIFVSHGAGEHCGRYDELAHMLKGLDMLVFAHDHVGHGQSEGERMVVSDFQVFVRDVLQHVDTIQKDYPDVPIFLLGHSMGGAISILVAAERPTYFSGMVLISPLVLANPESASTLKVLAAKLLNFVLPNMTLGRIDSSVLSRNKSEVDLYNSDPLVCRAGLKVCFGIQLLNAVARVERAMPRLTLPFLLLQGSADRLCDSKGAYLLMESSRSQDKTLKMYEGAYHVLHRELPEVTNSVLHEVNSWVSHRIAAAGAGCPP
To be noted: for inhibition at 10 µM: 10 μM inhibitor; for IC50: mouse brain membrane fraction or cell lysates, 30 min preincubation at 37° C., read-out: Mouse (IC50 value, nM) MAGL; for inhibition at 1 µM: 1 μM inhibitor. The procedure:
as §1, §2

Bounds are passed on as bounds.

By inhibition is commonly meant the change of the read-out against control, counted positive when it falls. One may read the IC50 as the concentration that gives 50% inhibition.

With `Cc1cnn(C(=O)NCc2ccc3ccccc3c2)c1` [Example 44, 4-Methyl-N-(naphthalen-2-ylmethyl)-1H-pyrazole-1-carboxamide], the inhibition at 10 µM at ABHD6, at FAAH and on MAGL was under 25% each time.
`O=C(N1CCN(C(c2ccc(Cl)cc2)c2ccc(Cl)cc2)CC1)n1cccn1` [Example 46, (4-(Bis(4-chlorophenyl)methyl)piperazin-1-yl)(1H-pyrazol-1-yl)methanone]: the results for the IC50 at ABHD6, at FAAH and on MAGL were over 1000 nM, over 1000 nM and under 100 nM, respectively.
As to `O=C(N1CCN(Cc2ccc(Cl)cc2N2CCOCC2)CC1)n1cc(Cl)cn1` [Example 47, (4-Chloro-1H-pyrazol-1-yl)(4-(4-chloro-2-morpholinobenzyl)piperazin-1-yl)methanone], the half-inhibitory concentration (IC50) was under 100 nM at ABHD6, 100 to 1000 nM at FAAH and under 100 nM at MAGL.
With `O=C(c1cnn(C(=O)N2CCN(C(c3ccc(Cl)cc3)c3ccc(Cl)cc3)CC2)c1)N1CCCC1` [Example 48, (4-(Bis(4-chlorophenyl)methyl)piperazin-1-yl)(4-(pyrrolidine-1-carbonyl)-1H-pyrazol-1-yl)methanone], the IC50 was 100 to 1000 nM at ABHD6, over 1000 nM at FAAH and 100 to 1000 nM on MAGL.
Regarding `O=C(NC1CC1)c1cnn(C(=O)N2CCN(C(c3ccc(Cl)cc3)c3ccc(Cl)cc3)CC2)c1` [Example 49, 1-(4-(Bis(4-chlorophenyl)methyl)piperazine-1-carbonyl)-N-cyclopropyl-1H-pyrazole-4-carboxamide], the IC50 was 100 to 1000 nM on ABHD6, over 1000 nM on FAAH and 100 to 1000 nM on MAGL.
With `O=C(N1CCN(Cc2ccc(Cl)cc2N2CCCC2)CC1)n1cc(Cl)cn1` [Example 50, (4-Chloro-1H-pyrazol-1-yl)(4-(4-chloro-2-(pyrrolidin-1-yl)benzyl)piperazin-1-yl)methanone], the IC50 at ABHD6 was under 100 nM; on FAAH it was 100 to 1000 nM; on MAGL, under 100 nM.
For `O=C(c1cnn(C(=O)N2CCN(C(c3ccc(Cl)cc3)c3ccc(Cl)cc3)CC2)c1)N1CCCCC1` [Example 66, (4-(Bis(4-chlorophenyl)methyl)piperazin-1-yl)(4-(piperidine-1-carbonyl)-1H-pyrazol-1-yl)methanone], at ABHD6, the inhibition at 1 µM is over 75%, the inhibition at 10 µM is over 75% and the IC50 fell in the range of 100 to 1000 nM. For the same compound, on FAAH, the inhibition at 1 µM was under 25%, the inhibition at 10 µM was in the range of 25 to 75% and the half-maximal inhibitory concentration (IC50) was over 1000 nM. For the same compound, at MAGL, the inhibition at 1 µM was over 75%, the inhibition at 10 µM was over 75% and the IC50 was 100 to 1000 nM.
Consider `O=C(c1cnn(C(=O)N2CCN(C(c3ccc(Cl)cc3)c3ccc(Cl)cc3)CC2)c1)N1CCC1` [Example 68, Azetidin-1-yl(1-(4-(bis(4-chlorophenyl)methyl)piperazine-1-carbonyl)-1H-pyrazol-4-yl)methanone], for which the inhibition at 1 µM was over 75% on ABHD6, under 25% on FAAH and over 75% at MAGL. Besides, the inhibition at 10 µM at ABHD6, on FAAH and at MAGL was over 75% in each case. Besides, the IC50 was 100 to 1000 nM on ABHD6, over 1000 nM on FAAH and 100 to 1000 nM at MAGL.
In the case of `Cc1cc(-c2ccccc2)ccc1CN1CCN(C(=O)n2cccn2)CC1` [Example 94, (4-((3-Methyl-[1,1′-biphenyl]-4-yl)methyl)piperazin-1-yl)(1H-pyrazol-1-yl)methanone], the IC50 on ABHD6 was over 1000 nM; on FAAH, 100 to 1000 nM; at MAGL, under 100 nM.
`O=C(N1CCN(C(c2ccc3c(c2)COC3)c2ccc3c(c2)COC3)CC1)n1cc(Cl)cn1` [Example 95, (4-(Bis(1,3-dihydroisobenzofuran-5-yl)methyl)piperazin-1-yl)(4-chloro-1H-pyrazol-1-yl)methanone]: the inhibition at 1 µM was over 75% at ABHD6, under 25% on FAAH and over 75% at MAGL.
Consider `O=C(N1CCCCC1)n1cc(Cl)cn1` [Example 96, (4-Chloro-1H-pyrazol-1-yl)(piperidin-1-yl)methanone], for which the inhibition at 10 µM at ABHD6, at FAAH and at MAGL was over 75% each time.
For `O=C(N1CCOCC1)n1cc(Cl)cn1` [Example 97, (4-Chloro-1H-pyrazol-1-yl)(morpholino)methanone], the inhibition at 10 µM was under 25% on ABHD6, over 75% on FAAH and under 25% at MAGL.
Take `O=C(N1CCCC1)n1cc(Cl)cn1` [Example 98, (4-Chloro-1H-pyrazol-1-yl)(pyrrolidin-1-yl)methanone]: the values for the inhibition at 10 µM on ABHD6, on FAAH and on MAGL were under 25%, over 75% and 25 to 75%, respectively.
Regarding `O=C(N1CCN(Cc2c(N3CCCC3)cccc2C(F)(F)F)CC1)n1cc(Cl)cn1` [Example 99, (4-Chloro-1H-pyrazol-1-yl)(4-(2-(pyrrolidin-1-yl)-6-(trifluoromethyl)benzyl)piperazin-1-yl)methanone], the inhibition at 1 µM at ABHD6, at FAAH and on MAGL was over 75% in each case.
As for `O=C(N1CCN(C(c2ccc(Cl)cc2)c2ccc(Cl)cc2)CC1)n1cc(Cl)cn1` [Example 100, (4-(Bis(4-chlorophenyl)methyl)piperazin-1-yl)(4-chloro-1H-pyrazol-1-yl)methanone], the IC50 was 100 to 1000 nM on ABHD6, over 1000 nM at FAAH and under 100 nM at MAGL.
Regarding `CC(C)n1cc(CN2CCN(C(=O)n3cc(Cl)cn3)CC2)c(-c2ccccc2)n1` [Example 101, (4-Chloro-1H-pyrazol-1-yl)(4-((1-isopropyl-3-phenyl-1H-pyrazol-4-yl)methyl)piperazin-1-yl)methanone], the inhibition at 1 µM at ABHD6, on FAAH and on MAGL was over 75% each time.
`O=C(N1CCN(Cc2ccc(Cl)cc2N2CCC3(CCOCC3)C2)CC1)n1cc(Cl)cn1` [Example 102, (4-Chloro-1H-pyrazol-1-yl)(4-(4-chloro-2-(8-oxa-2-azaspiro[4.5]decan-2-yl)benzyl)piperazin-1-yl)methanone]: the inhibition at 1 µM was over 75% at ABHD6, under 25% on FAAH and over 75% on MAGL. Also, the figures for the IC50 on ABHD6, on FAAH and at MAGL were under 100 nM, over 1000 nM and under 100 nM, respectively.
Turning to `Cc1ccc(-c2cnn(C(=O)N3CCCC3)c2)cc1` [Example 104, Pyrrolidin-1-yl(4-(p-tolyl)-1H-pyrazol-1-yl)methanone], the inhibition at 10 µM on ABHD6 is over 75%; on FAAH, over 75%; on MAGL, under 25%.
Regarding `O=C(N1CCCC1)n1cc(-c2ccc(Cl)cc2)cn1` [Example 105, (4-(4-Chlorophenyl)-1H-pyrazol-1-yl)(pyrrolidin-1-yl)methanone], the values for the inhibition at 10 µM at ABHD6, on FAAH and at MAGL were over 75%, over 75% and under 25%, respectively.

Source of the values: US10093630B2, “Pyrazole compounds and methods of making and using same” (ABIDE THERAPEUTICS, INC., priority 2014, dated 2018).
